“Also recorded” adds a separate entry of the source.
What was measured:
Female Wistar rats = details: neuroleptic alone; olanzapine 8 mg/kg sc, clozapine 8 mg/kg sc, haloperidol 4 mg/kg ip; oral glucose load 2 g/kg; FIG. 1A
Description: Female Wistar rats (weight range 250-300 g upon arrival) are obtained from Janvier (Le Genest Saint Isle-France, France) and housed in pairs or three together at a temperature of 21±4° C. and 55±20% humidity. The animals are maintained on a reverse phase light-dark cycle (lights off for 8 h from 09.30-17.30 h) during which time the room is illuminated by red light. The animals are housed and have free access to a fat diet and tap water until the night before the oral glucose tolerance test (OGTT) experiment.
An oral glucose tolerance test is performed in overnight fasted animals. A pre-dose blood sample (t0-90 min) is obtained by tail bleed. Blood glucose is measured with a glucometer, and the animals are randomized for blood glucose (n=8/group). Subsequently, the groups receive a single oral administration of either vehicle or a neuroleptic agent in the presence or absence of an SGLT-2 inhibitor. The animals receive an oral glucose load (2 g/kg) 60 min after compound administration. Blood glucose is measured in tail blood 15 min, 30 min, 60 min, 120 min, and 180 min after the glucose challenge. Glucose excursion is quantified by calculating the reactive glucose AUC. The data are presented as mean±SEM.

[1] = metformin on its own, in the diabetic; cited from earlier work

SMILES | glucose tolerance in OGTT (Female Wistar rats) | average improvement in the HbA1c value [1]
CN1CCN(C2=Nc3cc(Cl)ccc3Nc3ccccc32)CC1 [Clozapine, 8-chloro-11-(4-methylpiperazin-1-yl)-5H-dibenzo[b,e][1,4]diazepine] | impaired glucose tolerance | –
O=C(CCCN1CCC(O)(c2ccc(Cl)cc2)CC1)c1ccc(F)cc1 [haloperidol, 4-[4-(4-chlorophenyl)-4-hydroxy-1-piperidyl]-1-(4-fluorophenyl)-butan-1-one] | impaired glucose tolerance; also recorded: worsening of the OGTT was less pronounced | –
CN(C)C(=N)N=C(N)N [metformin] | – | 1.0-1.5%
